Where no end group is shown, it is not given here.
How the values were obtained:
[1] = test system: HPA axis; assay: Effect of central (intracerebroventricular) GLP-1 on the HPA axis, plasma ACTH and corticosterone by RIA; format: in vivo, rats
Protocol: Central GLP1 effects on the HPA axis were assayed as described in Kinzig et al. (2003) J. Neuroscience 21:6163-6170, herein incorporated by reference in its entirety). Ten male Long-Evans rats (275-350 gm) were housed individually in plastic tub cages with a 12 hour light/dark cycle. […] Catheters were made of sterile SILASTIC tubing, the distal end beveled, a small piece sterile suture tied at 4 cm from the distal end, and filled with heparinized saline. The catheter was attached to a 1 ml syringe filled with heparinized saline at the end that remained at the head. Under ketamine ([…], i.p.) and xylazine (1.5 mg/kg i.p.) anesthesia, the rat's abdomen and top of the head were shaved. A midline incision (approx. 8 cm in length) was made beginning at the sternum. An additional incision was made on the skull. The catheter was subcutaneously from the skull incision to the muscle wall lining the intraperitoneal cavity with a pair of straight hemostats. The muscle wall underlying the abdominal skin incision was opened. A small incision was made in the right muscle wall, through which the catheter was pulled into the intraperitoneal cavity. […] The vein was then punctured with a 21 gauge needle, and the catheter was quickly inserted to the 4 cm mark. Heparinized saline (0.5 ml) was slowly pushed through the inserted catheter. One suture was made in the dorsal muscle wall immediately to the right of the insertion site. […]
Ten days after surgery, cannula placement was verified by administering angiotensin II through the cannula (intracerebroventricular, (i3vt)). Catheter patency was also determined 10 days after surgery. […]
Plasma was extracted and subsequently assayed (RIA) for ACTH and corticosterone (CORT). Results from one such experiment are presented in FIG. 1, panels A and B. Results were analyzed by two-way ANOVA and Tukey's HSD test.
Plasma ACTH and corticosterone concentrations were determined using ^125I-labeled rat ACTH and corticosterone kits according to manufacturers' instructions. […]

[2] = test system: HPA axis; assay: Peripheral (intraperitoneal) GLP-1 effects on the HPA axis; format: in vivo, rats; details: peripheral administration of GLP-1
Protocol: Plasma ACTH and corticosterone concentrations were determined using ^125I-labeled rat ACTH and corticosterone kits according to manufacturers' instructions. The limits of detection for each kit are 15 pg/ml and 8 ng/ml, respectively. For both ACTH and corticosterone assays, all plasma samples were run in duplicate in single assays.
An additional group of six rats was prepared as described in example 1 to test the effects of peripheral administration of GLP-1 on ACTH and corticosterone (CORT) release. Using a within-subjects design, rats were administered saline and 10, 100, and 500 μg/kg GLP-1 intraperitoneally. Each rat received each treatment in a randomized manner, with no less than 5 days between treatments.

[3] = test system: mammalian central nervous system; assay: Relative potency in the mammalian central nervous system; format: in vivo

Substance	activation of the HPA axis, dose compared with dose required to decrease food intake ([1]; GLP-1 acting in the CNS)	activity of the HPA axis ([1]; central administration of GLP-1)	stress response ([1]; in vivo)	activity of the HPA axis [2]	potency relative to GLP-1(7-36) amide [3]
GLP-1: post-translational product of preproglucagon; ligand of the GLP-1 receptor (HAEGTFTSDVSSYLEGQAAKEFIAWLVKGR; ends and bridges not checked; UniProt P01275 98-127, looked up)	potent activation of the HPA axis at doses lower than that required to decrease food intake	excites the HPA axis	increases the stress response	does not	–
exendin 4: GLP-1 receptor agonist	–	–	–	–	at least 20 times
